This is an account of results in patent publication US9394549B2, “Method for producing useful chemical substance from terephthalic acid potassium salt” (GENARIS, INC., priority 2012, dated 2016).

The nature of series [1]: Solubility of terephthalic acid salts in water. In kind it is physicochemical. How it is done:
2.99 g (0.018 mol) of terephthalic acid (in a form of powder, manufactured by Sigma-Aldrich Japan; hereinafter, unless otherwise specified, reagents used were ones manufactured by Sigma-Aldrich Japan) and 0.036 mol of potassium hydroxide (in a form of granule) were put in a 50 mL-glass beaker. Distilled water was filled to obtain a volume of about 15 mL. The resulting mixture was covered with aluminum foil as a lid, heated at 50° C. for 60 minutes while stirred by a hot stirrer (manufactured by AS ONE Corporation), and allowed to cool to 30° C. After stirring at 30° C. for 120 minutes or more and confirming the precipitate remained in the solution, 1 mL of the solution was collected and subjected to centrifugation using a high speed micro centrifuge (manufactured by Tomy Seiko Co., Ltd.) (30° C., 14000 rpm (17800 g), 30 seconds) to collect the supernatant.
The concentration of terephthalic acid in this supernatant was measured and regarded as the solubility of dipotassium terephthalate. With regard to the measurement of the concentration of terephthalic acid, the sample was diluted 16,000-fold with 2.5% aqueous acetonitrile solution and analyzed in separation conditions of Table 1 using high performance liquid chromatography (Waters Corporation, LCT Premier XE). Thereafter, the concentration was calculated on the basis of a ratio of the area of terephthalic acid peaks using aqueous terephthalic acid solution with a known concentration as a control.

Series [2] has as its system recombinant Escherichia coli strain M7032 (pUXPEaLT_tphA2A3A1_tpaK). As to the kind of experiment: Production of TPA-DHD from terephthalic acid salt in jar fermentor culture. In kind it is cell-based. The settings on record: for Ratio of the capacity in production (TPA-DHD): disodium terephthalate as 100%. How it is done:
Based on the results of Example 1, on the basis of terephthalic acid, potassium hydroxide, sodium hydroxide, 28% ammonium solution and distilled water, 0.6 M dipotassium terephthalate aqueous solution, 0.6 M 1-potassium 4-sodium terephthalate aqueous solution, 0.6 M 1-potassium 4-ammonium terephthalate aqueous solution, and 0.6 M disodium terephthalate aqueous solution were prepared 500 mL each. 30 ml of these terephthalic acid salt solutions and 7 g of glucose were mixed to prepare a glucose and substrate mixed solution.
A TPA-DHD production plasmid pUXPEaLT_tphA2A3A1_tpaK constructed in Reference Example 3 was introduced into Escherichia coli M7032 strain (obtained from CGSC of Yale University) by a transformation method to obtain a recombinant Escherichia coli strain M7032 (pUXPEaLT_tphA2A3A1_tpaK).
This transformant was cultured in 1 ml of LB liquid medium (10 g/l tryptone (manufactured by Difco), 5 g/l dried yeast extract (manufactured by Difco), 10 g/l sodium chloride) containing ampicillin at a final concentration of 100 mg/1 overnight. Next, merely 1% of this overnight culture was inoculated in 10 ml of F6.6W/P100/G2 medium containing ampicillin at a final concentration of 100 mg/I and cultured at 30° C. for 24 hours.
Next, in order to carry out main culture based on this preculture, 65 ml of F6.6W/P10/G1 medium which is a main culture medium was put in an octuple mini jar fermentor (manufactured by ABLE Corporation) and adjusted to 30.2° C.±0.2 and pH 6.9±0.1.
The aeration condition of the jar fermentor culture was adjusted to 1 vvm and the adjustment of the pH of the culture was carried out using an ammonium solution and sulfuric acid. Further, dissolved oxygen in the culture solution was regulated as a saturated oxygen concentration of 100% and controlled with the revolution of stirring blade such that the dissolved oxygen is maintained at 15%, which dissolved oxygen decreasing as bacterial cells grow.
In a main culture medium, 0.1% of preculture was inoculated and cultured in the above condition. When the bacterial cell turbidity reached about 7 at an absorbance of 600 nm, an inducer, m-toluic acid was added such that the final concentration thereof was 1 mM to express a terephthalate 1,2-dioxygenase protein, terephthalate 1,2-dioxygenase reductase protein, and terephthalic acid transporter protein. The glucose concentration was measured with time. When the glucose concentration reached 0, the glucose and substrate mixed solution was administered.
Each of the samples was subjected to analysis in conditions shown in Table 1 by an LC-TOF type mass spectrometer (Waters Corporation, LCT Premier XE). Identification of terephthalic acid was carried out with a combination of retention time of high performance liquid chromatography and an accurate mass value from the mass spectrometer, comparing to a standard sample of terephthalic acid. Among substances appeared as terephthalic acid decreased, TPA-DHD was identified on the basis of a predicted accurate mass value of TPA-DHD. Further, quantification of TPA-DHD was carried out on the basis of a calibration curve prepared from an amount of terephthalic acid decreased and an increase in the peak area of TPA-DHD.
First, 0.6 M dipotassium terephthalate aqueous solution and 0.6 M disodium terephthalate aqueous solution, both of which were prepared in Example 2, were mixed at a ratio of 0:100, 20:80, 25:75, 30:70, 35:65, and 50:50 to prepare each aqueous solution of the terephthalic acid salts. These terephthalic acid salt solutions 30 ml and glucose 7 g were mixed to obtain glucose and substrate mixed solutions.
Using these glucose and substrate mixed solutions, the capacity of recombinant Escherichia coli strain M7032 (pUXPEaLT_tphA2A3A1_tpaK) in production of TPA-DHD was examined by the same method as the method of Example 2. […]

[3] abbreviates: 0.6 M salt solution as raw material, 48 hours after the start of the main culture.
Where [4] appears, read: salt from PET in 1-butanol, 35 hours.
[5] abbreviates: salt obtained by depolymerization of PET in 1-butanol (Example 9), 0.6M, 35 hours.
Where [6] appears, read: salt obtained by depolymerization of PTT (Example 7), 0.6M, 48 hours.
Where [7] appears, read: 30 °C, water, thermodynamic from solid, in water at 30° C., rounded values of the summary, read-out: solubility in water at 30° C.
Setting [8] is: 30 °C, water, thermodynamic from solid, in water, 30° C., read-out: Solubility.

The structures appear in SMILES notation. Like-named read-outs stand apart in the source and are kept apart here.

As usually defined, the solubility is the concentration that dissolves in the medium under given conditions. As to `N.O=C([O-])c1ccc(C(=O)O)cc1.[K+]` [1-potassium 4-ammonium terephthalate], in series [1], the solubility amounted to 845 mM and the “solubility in water at 30° C.” value is on record as “about 0.85 M”. The TPA-DHD in series [2] (setting [3]) amounted to 12.2 g/L. Besides, the “Ratio of the capacity in production (TPA-DHD)” value (from here on “Ratio of the capacity”) in series [2] (48 hours) amounted to 126%.

Consider `O=C([O-])c1ccc(C(=O)[O-])cc1.[K+].[Na+]` [1-potassium 4-sodium terephthalate], for which the solubility in series [1] came out at 956 mM. Also, the “solubility in water at 30° C.” value in series [1] is given as “about 0.96 M”. Besides, the TPA-DHD is given as 10.7 g/L in series [2] (setting [3]), 14.8 g/L in series [2] (setting [5]) and 14.3 g/L in series [2] (setting [6]). For the same molecule, the “Ratio of the capacity” value in series [2] (48 hours) is 110%; in series [2] (setting [4]), 116%; in series [2] (salt from PTT, 48 hours) it was 112%.

Consider `O=C([O-])c1ccc(C(=O)[O-])cc1.[K+].[K+]` [Dipotassium terephthalate, dipotassium terephthalate], for which the solubility in series [1] (setting [7]) is around 1000 mM; in series [1] (setting [8]) it was 1010 mM. For the same molecule, the results for the TPA-DHD in series [2] (setting [3]), in series [2] (setting [5]) and in series [2] (setting [6]) were 11.3 g/L, 17.4 g/L and 17.7 g/L, respectively. The “Ratio of the capacity” value came out at 116% in series [2] (48 hours); 136% in series [2] (setting [4]); 138% in series [2] (salt from PTT, 48 hours).

As for `O=C([O-])c1ccc(C(=O)[O-])cc1.[Na+].[Na+]` [Disodium terephthalate, disodium terephthalate, reference compound], the solubility in series [1] (setting [7]) is around 630 mM; in series [1] (setting [8]), 630 mM. Further, the results for the TPA-DHD in series [2] (setting [3]), in series [2] (setting [5]) and in series [2] (setting [6]) were 9.7 g/L, 12.8 g/L and 12.8 g/L, respectively. For the same molecule, the “Ratio of the capacity” value in series [2] (48 hours) was determined as 100%; in series [2] (setting [4]) it was 100%; in series [2] (salt from PTT, 48 hours), 100%.
